Assay results reported in patent publication US20140357512A1, “HISTONE DEACETYLASE (HDAC) BIOMARKERS IN MULTIPLE MYELOMA” (priority 2013, published 2014).

Tested on: human myeloma cell line MM.1S
Assay: SILAC acetylated-lysine peptide profiling, HDAC inhibitor vs DMSO (light/heavy ratio)
Format: cell-based
Excerpt: An embodiment of the invention comprises utilizing the SILAC method in order to quantitate changes in protein expression between two or more populations of cells. The SILAC method is a technique based on mass spectrometry that detects differences in protein abundance among samples using non-radioactive isotopic labeling. The SILAC method is known in the art, and described in detail in Ong et al., “Stable Isotope Labeling by Amino Acids in Cell Culture, SILAC, as a Simple and Accurate Approach to Expression Proteomics”, Molecular & Cellular Proteomics, vol. 1, pp. 376-386 (2002), which is incorporated herein by reference in its entirety.
Briefly, the SILAC method involves growing two populations of cells in cell culture. The first population of cells is grown in growth media containing normal amino acids (“normal media”). The second population of cells is grown in media lacking a standard essential amino acid (such as lysine), but is then supplemented with a non-radioactive, isotopically labeled form of that essential amino acid (such as lysine labeled with ^13C atoms, rather than normal ^12C atoms), which is called “heavy media”. When the two populations of cells are each growing in the medium, they incorporate the amino acids into all of their proteins. The growth of cells maintained in the heavy media is no different from that in normal media. All peptides containing the heavy amino acids are heavier than their normal counterparts. The cells from each of the two populations of cells are lysed. The lysates from each of the two cell populations are then combined. The combined cell lysates are then analyzed by mass spectrometry. Pairs of chemically identical peptides of different stable isotope composition can be differentiated in a mass spectrometer due to their difference in mass. The ratio of peak intensities in the mass spectrum for such peptide pairs reflects the abundance ratio for the two proteins.
This example describes SILAC studies that were performed to compare the effects of three different HDAC inhibitors (Compound A, Compound B, and tubastatin A) to a control on a human multiple myeloma cell line. The HDAC inhibitors were also compared amongst themselves to determine differences in their effects.
A human myeloma cell line MM.1S was grown using either ^12C (light) or ^13C (heavy) lysine containing culture medium. The “heavy” cells were treated with DMSO as the control, and the “light” cells were treated with a single HDAC inhibitor at 37° C. for 6 hours. The heavy and light cells were lysed, and the lysates were mixed in 1:1 ratio and digested with the protease trypsin. The acetylated lysine containing peptides (due to the action of the HDAC inhibitor) in the digested peptide pool were captured by a non-specific anti-acetylated lysine antibody cocktail (the antibodies identify both light and heavy acetylated peptides), and subjected to mass spectrometry analysis in order to identify thousands of individual peptides.
Thousands of peptides were identified in pairs (^12C and ^13C) due to their known mass differences. The amino acid sequence and quantitative ratio (Light/Heavy) of a given peptide in two differentially treated cell lysates were then determined and annotated with their possible protein (gene) sources.
As stated above, three HDAC inhibitors (Compound A, Compound B, and Tubastatin A) were used. Thus, the SILAC method was performed three times, with a different HDAC inhibitor compared to a control each time. Accordingly, there are three pairs of quantitative data in the table below, i.e., Compound A:DMSO, Compound B:DMSO, and Tubastatin A:DMSO. A cut-off of 1.30 fold of change (increase or decrease) was then used to determine “changed” or “+” in the table, and any peptides with a fold of change less than 1.3 fold were determined to be “unchanged” or “0” in the table. Those peptides that were not identified were marked as “NA” in the table. […]

O=C(NO)c1cnc(NC2(c3cccc(F)c3)CCCCC2)nc1 [Compound B, 2-((1-(3-fluorophenyl)cyclohexyl)amino)-N-hydroxypyrimidine-5-carboxamide]
light to heavy ratio (L/H ratio), log 2 scale, acetylated peptide VGDK(ac)[…] (SEQ ID NO: 773) (10 kDa heat shock protein mitochondrial [70], gene HSPE1, drug:DMSO): 0.00
light to heavy ratio (L/H ratio) of acetylated peptide IQEVLK(ac)HAR (SEQ ID NO: 264) (39S ribosomal protein L20 mitochondrial [26], MRPL20, drug:DMSO): 0.00 log 2
light to heavy ratio (L/H ratio) of acetylated peptide KDVHMPK(ac)HPELADK (SEQ ID NO: 353) (40S ribosomal protein S10 [31], RPS10, drug:DMSO): 0.56 log 2
light to heavy ratio (L/H ratio) of acetylated peptide NK(ac)[…] (SEQ ID NO: 559) (40S ribosomal protein S17 [49], gene RPS17, RPS17L, inhibitor:DMSO): 0.00 log 2
light to heavy ratio (L/H ratio) of acetylated peptide IDK(ac)PILK (SEQ ID NO: 506) (60S ribosomal protein L8 [177], gene RPL8, inhibitor:DMSO): 0.00 log 2
light to heavy ratio (L/H ratio) of acetylated peptide GPLDK(ac)WR (SEQ ID NO: 622) (60S ribosomal protein L10-like [208], gene RPL10L, inhibitor:DMSO): 0.00 log 2
light to heavy ratio (L/H ratio), log 2 scale, acetylated peptide YMVK(ac)SCGK (SEQ ID NO: 811) (60S ribosomal protein L10 [78], gene SNORA70, RPL10, drug:DMSO): 0.00
light to heavy ratio (L/H ratio), log 2 scale, acetylated peptide VDEVK(ac)STIK (SEQ ID NO: 805) (60S ribosomal protein L10a [152], gene RPL10A, drug:DMSO): 0.00
light to heavy ratio (L/H ratio) of acetylated peptide VITEEEK(ac)NFK (SEQ ID NO: 522) (60S ribosomal protein L13 [174], gene RPL13, inhibitor:DMSO): 0.00 log 2
light to heavy ratio (L/H ratio) of acetylated peptide K(ac)FAYLGR (SEQ ID NO: 614) (60S ribosomal protein L13a [134], gene SNORD32A, RPL13A, SNORD33, SNORD34, inhibitor:DMSO): 0.00 log 2
light to heavy ratio (L/H ratio), log 2 scale, acetylated peptide LAHEVGWK(ac)[…] (SEQ ID NO: 812) (60S ribosomal protein L13a [148], gene SNORD32A, RPL13A, SNORD33, SNORD34, drug:DMSO): 0.00
light to heavy ratio (L/H ratio) of acetylated peptide GHK(ac)FHHTIGGSR (SEQ ID NO: 519) (60S ribosomal protein L15 [179], gene RPL15, inhibitor:DMSO): 0.00 log 2
light to heavy ratio (L/H ratio), log 2 scale, acetylated peptide SFVK(ac)[…] (SEQ ID NO: 770) (60S ribosomal protein L27 [73], gene RPL27, drug:DMSO): 0.00
light to heavy ratio (L/H ratio), log 2 scale, acetylated peptide YSVDIPLDK(ac)TVVNK (SEQ ID NO: 807) (60S ribosomal protein L27 [93], gene RPL27, drug:DMSO): 0.00
light to heavy ratio (L/H ratio) of acetylated peptide NCSSFLIK(ac)R (SEQ ID NO: 558) (60S ribosomal protein L28 [19], gene RPL28, inhibitor:DMSO): 0.00 log 2
light to heavy ratio (L/H ratio) of acetylated peptide IHGVGFK(ac)K (SEQ ID NO: 542) (60S ribosomal protein L31 [39], gene RPL31, inhibitor:DMSO): 0.00 log 2
light to heavy ratio (L/H ratio), log 2 scale, acetylated peptide LNK(ac)AVWAK (SEQ ID NO: 808) (60S ribosomal protein L31 [70], gene RPL31, drug:DMSO): 0.00
light to heavy ratio (L/H ratio) of acetylated peptide LWSK(ac)AIFAGYK (SEQ ID NO: 538) (60S ribosomal protein L35a [8], gene RPL35A, inhibitor:DMSO): 0.00 log 2
light to heavy ratio (L/H ratio) of acetylated peptide KIEISQHAK(ac)YTCSFCGK (SEQ ID NO: 351) (60S ribosomal protein L37a [36], RPL37A, drug:DMSO): 0.41 log 2
light to heavy ratio (L/H ratio) of acetylated peptide VMEHFIK(ac)LYK (SEQ ID NO: 276) (78 kDa glucose-regulated protein [268], HSPA5, drug:DMSO): 0.00 log 2
light to heavy ratio (L/H ratio) of acetylated peptide AK(ac)[…] (SEQ ID NO: 266) (78 kDa glucose-regulated protein [326], HSPA5, drug:DMSO): 0.00 log 2
light to heavy ratio (L/H ratio) of acetylated peptide FK(ac)[…] (SEQ ID NO: 333) (116 kDa U5 small nuclear ribonucleoprotein component [790], EFTUD2, drug:DMSO): −0.99 log 2
L/H ratio of acetylated peptide ((ac)AQLGK(ac)LLK (SEQ ID NO: 421), NEDD8-activating enzyme E1 regulatory subunit [6], NAE1): 0.70 log 2
L/H ratio of acetylated peptide ((ac)MEDYTK(ac)IEK (SEQ ID NO: 374), Isoform 2 of Cyclin-dependent kinase 1 [6], CDK1): −0.51 log 2
light to heavy ratio (L/H ratio) of acetylated peptide, log 2 scale ((ac)SIGVPIK(ac)[…] (SEQ ID NO: 224), Small nuclear ribonucleoprotein Sm D3 [8], SNRPD3): 0.00
L/H ratio of acetylated peptide ((ac)SNMEK(ac)HLFNLK (SEQ ID NO: 376), Charged multivesicular body protein 1b [6], CHMP1B): 0.85 log 2
L/H ratio of acetylated peptide ((ac)SSNECFK(ac)CGR (SEQ ID NO: 379), Isoform 1 of Cellular nucleic acid-binding protein [8], CNBP): −0.82 log 2
light to heavy ratio (L/H ratio) of acetylated peptide, log 2 scale ((ac)SVFGK(ac)LFGAGGGK (SEQ ID NO: 143), Charged multivesicular body protein 4b [6], CHMP4B): 0.00
L/H ratio of acetylated peptide ((ac)[…](ac)DLK (SEQ ID NO: 437), Isoform 2 of Prothymosin alpha [15], PTMA, MIR1244-3, MIR1244-2, MIR1244-1): 0.61 log 2
L/H ratio of acetylated peptide ((ac)[…](ac)SAR (SEQ ID NO: 464), Voltage-dependent anion-selective channel protein 1 [12], VDAC1): −0.78 log 2
L/H ratio of acetylated peptide (ACK(ac)LAIR (SEQ ID NO: 463), Transitional endoplasmic reticulum ATPase [696], VCP): −0.58 log 2
L/H ratio of acetylated peptide NLQK(ac)EVIHR (SEQ ID NO: 125) (ACOX1 [504], log 2 scale, drug vs DMSO): 0.00
